Measured values reported in US20240400536A1, “IDEBENONE DERIVATIVES AND THEIR USE IN TREATING PLANTS” (MITORX THERAPEUTICS LIMITED, priority 2021, published 2024).

Key:
C. elegans = experiment: Worm screening: mitochondrial network imaging in ageing C. elegans; format: in vivo; conditions: for reduction of networked mitochondria caused by aging: FIG. 2; for damage caused to mitochondrial network in aging: FIG. 3
Procedure: C. elegans strains were cultured at 20° C. on Petri dishes containing nematode growth medium (NGM) agar and a lawn of Escherichia coli OP50, unless stated otherwise. Animals for the study were age-synchronized by gravity synchronization from the L1 stage and allowed to grow to the desired day of adulthood. The C. elegans strains used in this study were Bristol strain N2 (WT) provided by the Caenorhabditis Genetics Center.
Mitochondrial imaging was used in day 1 adults, with or without treatment, to examine the mitochondrial network. Worms were cultured on test compounds as described. Approximately 20 day 1 adults were picked into 20 μL of M9 buffer on a microscope slide with a coverslip applied. Worms were imaged at 40× magnification using a Nikon Eclipse 50i microscope. The protocol used was as described by Oh and Kim. Briefly animals were assessed at day 4 and day 8 of adulthood, where the number of dead muscle cells was determined by quantifying the number of muscle cells that had lost their distinct circular nuclear GFP signal. Approximately 30 animals were picked into 20 μL of M9 buffer on a microscope slide with a coverslip applied. Worms were imaged at 10× magnification by using a Nikon Eclipse 50i microscope.

b.End3 cells [1] = experiment: Hyperglycaemia-induced mitochondrial dysfunction: mitochondrial membrane potential restore; format: cell-based; conditions: compound added on day 8 for two days
Procedure: Moreover, in cardiovascular diseases such as hypertension and diabetes a loss of endothelial function and cell death were observed [Poredos et al, 2021].
In order to induce hyperglycemia in b.End3 cells, a literature reported protocol Lorenzi et al 1985; Qu et al 2014] was followed. After trypsinisation, cells were diluted with supplemented DMEM (approximately 2 ml per flask) and consequently, cells from 3 or 4 different flasks were transferred in a 15 ml sterile conical centrifuge tube and centrifuged for 5 minutes, in order to separate the cells from the medium. Following that, the supernatant medium was removed and the cells were gently re-suspended and mixed with approximately 4 ml of fresh supplemented DMEM. 20 μl of this solution was added to 40 μl of trypan blue and 10 μl of the final solution was loaded onto a cell counting slide dual-chamber. Trypan blue allows to distinguish between live and dead cells. Indeed it is impermeable in live cells, while it is absorbed by dead cells. The number of cells per ml was measured using an automated cell counter. Commonly, the value found was […] and consequently, the cell solution was diluted, in order to obtain a concentration of 20,000 cells/well in the minimum volume necessary to fill a 96-well plate (200 μl/well, ≈13 ml for one plate, since the two external columns and rows were loaded with cell-free medium because they are susceptible to evaporation thus, the cell medium in these wells prevented the external cell-containing wells from evaporating). Cells were cultured overnight in a humidified incubator, in order to allow them to attach to the plate surface. Afterwards, the medium was removed (a part of the plate was kept with normal glucose DMEM as a […]) and supplemented high-glucose DMEM was added. Cells were cultured for 8 days since, in previous studies, it was determined that this is the minimum amount of time required to induce extensive mitochondrial dysfunction, such as excessive oxidant production and mitochondrial membrane hyperpolarisation Lorenzi et al 1985; Qu et al 2014]
On day 8, 10 μl/well (1/20 dilution factor) of a solution of an H2S donor or of a control compound or a PBS vehicle solution (with calcium and magnesium salts and 10% DMSO) was administered to cells. The final concentration of DMSO in cells was 0.5%: higher DMSO doses may be toxic for the cells. The cells were incubated for a further two days in the presence of the compound and after ten days of hyperglycaemia exposure, the amount of mitochondrial oxidant and mitochondrial membrane hyperpolarisation were determined. Noticeably in this procedure, in order to evaluate the cytoprotective activity of the novel compounds, the drugs were added only after the mitochondrial dysfunction in cells had already occurred. The protocol described is summarised in the scheme below:
On day 0, cells (20,000 cell/ml) were plated in a 96-well plate. Cells were cultured overnight at 37° C. On day 1, supplemented DMEM was removed and high-glucose supplemented DMEM was added. On day 8, an H2S donor compound (Examples 1-7), a control compound or altematively a vehicle solution was added to cells. On day 10, mitochondrial dysfunction were determined Lorenzi et al 1985; Qu et al 2014].

b.End3 cells [2] = experiment: Hyperglycaemia-induced mitochondrial dysfunction: mitochondrial superoxide (ROS) production, Mitosox Red; format: cell-based; conditions: 10 days hyperglycaemia, compound added on day 8 for two days
Procedure: In order to induce hyperglycemia in b.End3 cells, a literature reported protocol Lorenzi et al 1985; Qu et al 2014] was followed. After trypsinisation, cells were diluted with supplemented DMEM (approximately 2 ml per flask) and consequently, cells from 3 or 4 different flasks were transferred in a 15 ml sterile conical centrifuge tube and centrifuged for 5 minutes, in order to separate the cells from the medium. Following that, the supernatant medium was removed and the cells were gently re-suspended and mixed with approximately 4 ml of fresh supplemented DMEM. 20 μl of this solution was added to 40 μl of trypan blue and 10 μl of the final solution was loaded onto a cell counting slide dual-chamber. Trypan blue allows to distinguish between live and dead cells. Indeed it is impermeable in live cells, while it is absorbed by dead cells. The number of cells per ml was measured using an automated cell counter. […] Cells were cultured for 8 days since, in previous studies, it was determined that this is the minimum amount of time required to induce extensive mitochondrial dysfunction, such as excessive oxidant production and mitochondrial membrane hyperpolarisation Lorenzi et al 1985; Qu et al 2014]
On day 8, 10 μl/well (1/20 dilution factor) of a solution of an H2S donor or of a control compound or a PBS vehicle solution (with calcium and magnesium salts and 10% DMSO) was administered to cells. […] The cells were incubated for a further two days in the presence of the compound and after ten days of hyperglycaemia exposure, the amount of mitochondrial oxidant and mitochondrial membrane hyperpolarisation were determined. […]
On day 0, cells (20,000 cell/ml) were plated in a 96-well plate. […] On day 10, mitochondrial dysfunction were determined Lorenzi et al 1985; Qu et al 2014]. […]

b.End3 cells [3] = experiment: Toxicity (TC50); format: cell-based
endothelial cells = conditions: cited from earlier work
[4] = cited from earlier work
Toxicity (TC50) = format: cell-based; conditions: mouse, b.End3 cells
[5] = tested on: senescent primary human lung fibroblasts; experiment: Cellular bioenergetics (Seahorse OCR) in senescent primary human lung fibroblasts; format: cell-based; conditions: FIG. 4; compounds 0-300 nM; compared to the control (SIP cells without compound)
Procedure: Human primary lung fibroblasts were isolated from healthy volunteers and cultured in DMEM supplemented with 10% fetal calf serum and 1% pen/strep and […] L-glutamine, at 37° C., 5% CO2. To induce senescence, cells were seeded at a density of 50,000 cells per well in 250 μl of cell culture media onto Seahorse V7 plates and treated daily with fresh cell culture media containing […] H2O2 for 5 days, cells were then cultured with normal medium for a further 9 days. Senescence was confirmed by microscopy and staining for the senescence marker, senescence-associated-β-galactosidase (SA-βgal; Cell Signalling kit #9860). Cells were then treated with compounds (0-300 nM) for a further 24 h (controls are *SIP cells without compounds) and after this time, cellular bioenergetics determined using a Seahorse XFe24 extracellular flux analyser performed as described below. * SIP-senescence-induced phenotype
For the mitochondrial stress and glycolytic stress tests (Agilent, UK)Seahorse XFe24 sensor cartridges were hydrated with Seahorse XF calibrant solution and maintained at 37° C. in a non-CO2 incubator overnight. […] After incubation, plates were loaded onto Seahorse XFe24 Analyser and basal oxygen consumption rate (OCR) measured for 3 cycles. […] Extracellular acidification rate (ECAR) and Oxygen consumption rate (OCR) were measured for 3 baseline cycles and injection strategy initiated. […]

IC50 (b.End3 cells [1]; BEND3, 10 days hyperglycaemia) [nM] | Molecule | reduction of networked mitochondria caused by aging (C. elegans) | damage caused to mitochondrial network in aging (C. elegans) | IC25 (Mitochondrial ROS level restore) (b.End3 cells [2]) [nM] | CC50 (Toxicity (TC50)) [nM] | other results
– | 4-(3-sulfanylidene-3H-1,2- dithiol-5-yl)phenyl) 10-(4,5-dimethoxy-2- methyl-2,6-dioxocyclohexa- 1,4-dien-1-yl)decanoate [Example 2] | preserved | can be inhibited | 10 | – | fragmentation of the mitochondrial network caused by ageing (C. elegans; FIG. 1): inhibited; IC50 (b.End3 cells [1]; 10 days hyperglycaemia): 6 nM; CC50 (b.End3 cells [3]): 130000 nM
– | Oc1ccc(-c2cc(=S)ss2)cc1 [ADTOH, 5-(4-hydroxyphenyl) -3H-1,2-dithiole-3-thione] | not | not | – | – | –
– | O=C(CCCCCCCCC[P+](c1ccccc1)(c1ccccc1)c1ccccc1)Oc1ccc(-c2cc(=S)ss2)cc1.[Br-] [AP39] | – | – | 10 | – | IC50 (b.End3 cells [1]; 10 days hyperglycaemia): 4 nM; CC50 (b.End3 cells [3]): 8000 nM; ATP production (endothelial cells; endothelial cells): increase; protein persulfidation (endothelial cells; inside the mitochondria): increase; intracellular levels of H2S (endothelial cells; mainly inside the mitochondria, concentration-dependent): increase; aqueous solubility [4]: poor
0.4 | COC1=C(OC)C(=O)C(CCCCCCCCCCOC(=O)COc2ccc(-c3cc(=S)ss3)cc2)=C(C)C1=O [Example 1, 10-(4,5-dimethoxy-2-methyl-3,6-dioxocyclohexa-1,4-dien-1-yl)decyl 2-[4-(3-sulfanylidene-3H-1,2-dithiol-5-yl)phenoxy]acetate] | – | – | 6.5 | 147000 | –
5 | COC1=C(OC)C(=O)C(CCCCCCCCCC(=O)Oc2ccc(-c3cc(=O)ss3)cc2)=C(C)C1=O [Example 3, 4-(3-oxo-3H-1,2-dithiol-5-yl)phenyl 10-(4,5-dimethoxy-2-methyl-3,6-dioxocyclohexa-1,4-dien-1-yl)decanonate] | – | – | – | 76000 | –
1 | COC1=C(OC)C(=O)C(CCCCCCCCCC(=O)Oc2ccc(C(N)=S)cc2)=C(C)C1=O [Example 4, 4-carbamothioylphenyl 10-(4,5-dimethoxy-2-methyl-3,6-dioxocyclohexa-1,4-dien-1-yl)decanoate] | – | – | – | 100000 | –
– | CC1=C(CCCCCCCCCC(=O)Nc2ccc(C(N)=S)cc2)C(=O)c2ccccc2C1=O [Example 17, N-(4-carbamothioylphenyl)-10-(3-methyl-1,4-dioxo-1,4-dihydronaphthalen-2-yl)decanamide] | – | – | – | – | dysfunction of the mitochondria (loss of OCR) in senescent cells [5]: reversed
– | COC1=C(OC)C(=O)C(CCCCCCCCCCO)=C(C)C1=O [idebenone] | not | not | – | – | –
